From patent publication US20240197628A1, “INHALABLE DRY POWDER FORMULATIONS COMPRISING ANGIOGENESIS INHIBITORS” (Lonza Bend Inc., priority 2020, published 2024)

Tests used:
NSCLC cell line Calu-3 = assay: Orthotopic nude rat model for lung cancer, in vivo efficacy study; conditions: each with cisplatin IP 3 mg/kg, 1.5 mg/kg deposited INH vs 15 mg/kg IP, 8 weeks
Procedure: NSCLC cell line Calu-3 was instilled into the lungs of X-irradiated rats by an intratracheal route, targeting 1.5×10^7 cells per installation. For the first four weeks of the study, no treatment was administered, allowing growth of the tumor cells. Inhaled bevacizumab SDD was evaluated as a primary treatment as well as a maintenance therapy.
Cisplatin was administered by IP at 3 mg/kg. Powder was aerosolized using a rotating brush generator and delivered to the rats passively through nasal inhalation. […] Groups 1-4 were evaluated for primary efficacy after 8 weeks with lung weight as the end point. Groups 5-7 were evaluated for maintenance efficacy after 12 weeks with lung weight and survival as the end point.

[1] = solution prepared 18 hours before spray drying; cited from earlier work

Compound	tumor burden, inhaled vs IP bevacizumab (NSCLC cell line Calu-3; listed as IP bevacizumab)	tumor burden, inhaled vs IP bevacizumab (NSCLC cell line Calu-3; listed as bevacizumab delivered via IP injection)	stability in aqueous solution [1]
Bevacizumab [bevacizumab control]	indistinguishable	equal	
N.N.[Cl][Pt][Cl] [cisplatin]			converts to transplatin
